Data taken from patent publication US20220033448A1, “METHODS FOR AGGREGATION OF PROTEINS” (priority 2011, published 2022).
Like-named read-outs stand apart in the source and are kept apart here. No end group written: not given here. *: point of attachment. Biotin = O=C1N[C@H]2[C@H](CS[C@H]2CCCCC(=O)*)N1; Ttds = NCCCOCCOCCOCCCNC(=O)CCC(=O)*

Experiments:
[1] = system: MRSA strain 326
[2] = system: PR8 virus; format: cell-based, influenza A virus (H1N1 strain)
[3] = system: S. aureus; format: cell-based, Staphylococcus aureus; details: S. aureus clinical strain MRSA 204; passaged at half the MIC over 15 days
[4] = system: S. aureus MRSA 326; assay: Neutropenic-mouse thigh model; details: neutropenic mice; bolus i.v. dose of 15 mg/kg 2 h after inoculation; sacrificed 4 hours post-infection
[5] = molecular target: T1, β-Gal (Escherichia coli, UniProt P00722); details: 1 μM peptide; immobilized β-Gal
Description: In this in vitro experiment the affinity of different interferor peptides was measured for binding to β-gal by means of surface plasmon resonance (SPR). SPR experiments were performed at 25° C. using a Biacore T100 equipped with CM5 sensor chip (GE Healthcare.). Coupling reagents (N-ethyl-N′-(3-dimethylaminopropyl)carbodiimide (EDC), N-hydroxysuccinimide (NHS) and ethanolamine-HCI) were purchased from GE Healthcare. BSA and β-gal were purchased from Sigma-Aldrich and Roche Diagnostics, respectively. […] The proteins BSA and β-Gal were immobilized respectively, in the reference and sample channels on a CM5 sensor chip by standard amine coupling chemistry at a flow of 10 μl min^−1. The carboxymethyl dextran surface was activated by the injection of a 1:1 ratio of EDC and NHS for 7 minutes. The proteins were diluted in 10 mM sodium-acetate buffer, pH 4.5 to a final concentration of 0.2 mg m1^−1 and injected in short pulses over the activated surface until the immobilization levels reached 4000 RU or 8000 RU, for BSA and β-Gal, respectively. The remaining reactive groups were blocked with 1 M ethanolamine, pH 8. After completion of coupling, the surface was regenerated with short pulses of 50 mM NaOH and 8 M urea to remove non-covalently attached proteins. […] The peptides, dissolved in the running buffer (10 mM sodium phosphate, pH 6.8, 150 mM NaCI, 3 mM EDTA and 0.015% Tween 20) at a concentration of 1 μM, were injected for 60 s at a flow rate of 30 μl min^−1 and then allowed to dissociate for 600 s. The injection was repeated on the same surface as well as on independently immobilized surfaces. The surface was regenerated between each cycle by 30 s pulses of i) 50 mM NaOH, and ii) 8 M urea, and was allowed to stabilize for 400 s before the next cycle.
The peptide dissolved in the running buffer was injected for 60 s at a flow-rate of 301.11min′ over the reference (BSA) and sample (β-Gal) surfaces in a range of concentrations (0-4 μM, with one internal replicate) and were then allowed to dissociate for 600 s. The concentration series were repeated on the same surface (three times) as well as on independently immobilized surfaces. The surface was regenerated between each cycle by 30 s pulses of i) 50 mM NaOH, and ii) 8 M urea, and was allowed to stabilize for 400 s before the next cycle.
The data were globally fitted to a three-state model, using the Biacore T100 software, assuming an initial encounter between the peptide in solution and the protein on the chip followed by a two-step rearrangement before an identical binding site becomes available at the growing β-sheet.

[6] = molecular target: T1, β-Gal; details: 10 μM peptide and 10 μM β-Gal; 20 mM sodium phosphate buffer, pH 6.8
Description: The co-aggregation of Tango 1 peptide, Tango 2 peptide and a tandem repeat of Tango 2 peptide with 13-Gal in vitro were monitored via light scattering from the apparent change in the optical density (OD) at 340 nm due to growth of aggregate particulates at room temperature. The interferor-β-Gal co-aggregation was initiated by adding equimolar molar concentration (10 μM) of either Tango 1 peptide, either Tango 2 peptide, either tandem repeat of Tango 2 peptide and β-Gal in 20 mM sodium phosphate buffer, pH 6.8 followed by gently stirring the sample at 50 rpm.
To characterise the size of the aggregates the hydrodynamic radius (RH) of β-Gal at time zero and after co-incubation with the either Tango 1 peptide, either Tango 2 peptide, either tandem repeat of Tango 2 peptide (Table 14) for 2 h was measured using dynamic light scattering (DLS), DynaPro DLS (Wyatt Technology Europe, Germany).

[7] = system: EGFR family; assay: EGF-induced ERK1/2 phosphorylation in HeLa cells (cross reactivity of VEGFR2 peptides); format: cell-based, human; details: EGF 25 ng/ml
Description: As a next step, to test the specificity of the VEGFR2 peptides, we tested their cross reactivity towards the EGFR family. Therefore, HeLa cells were treated with peptide B8 and B12 and subsequently stimulated with EGF (25ng/ml).

[8] = system: human embryonic kidney cells (HEK293T cell line); details: 100 μg/ml; 24 hours incubation
Source text: Alamar blue assay allowed monitoring of the total percentage of cell growth recovery in time in the presence of peptides.

[9] = system: B. cereus
Description: (§1) Bacteria were grown in a shaking incubator at 37° C. and 160rpm in 50 ml BHI , using individual colonies retrieved from a fresh overnight TSA-sheep blood plate. The cultures were grown to a density of approximately 1×10^8cells/ml and then diluted to 5×10^5 cells/ml in CAMHB (Mc Farland 0.5). Each well contained 100p.I (50p.I of peptide containing MHB plus 50 μl inoculum). The final cell density was 1×10^5 to 5×10^5/ml. After addition of the cell suspension, plates were incubated at 37° C. for 18 to 24 hours. The optical density at 590 nm (OD590) of each well was measured after 5 seconds of shaking the plate using Perkin Elmer spectrophotometer (1420 Multilabel Counter Vicotr 3). […] Each well, where no growth was observed, was also plated on TSA-sheep blood agar plates, incubated at 37° C. overnight and visually inspected.
(§2) A microbroth dilution method was used with twofold serial dilutions in CAMHB (according to EMEA guidelines) was used for screening of peptide activity, with concentrations ranging from 0.3 μg/mIto 200 μg/ml.

[10] = system: human erythrocytes; format: cell-based
Source text: The detergent Tween was used as a positive control, causing 100% lysis of RBCs.

[11] = system: S. aureus
Description: as §1, §2

[12] = system: Human embryonic kidney (HEK293T) cells; details: 50 μg/ml (C30: 50 μg/ml or beyond)
[13] = system: Corynebacterium
Description: as §1, §2

[14] = molecular target: T2, human EGFR2 (Homo sapiens, UniProt P04626); assay: EGF-induced ERK1/2 phosphorylation in HeLa cells (ELISA); format: cell-based; details: EGF 25 ng/ml
T2 construct: these cells endogenously express EGFR1 and EGFR2; endogenous in cells; host or cells: HeLa
Description: The EGFR2 peptides are designed to target the human EGFR2 receptor. Thus, for these assays, HeLa cells were initially used, as these cells endogenously express EGFR1 and EGFR2.
For EGFR2, a similar screen was performed as for VEGFR2. Instead of using the time-consuming Western Blot method, however, an ELISA protocol was used that can detect both phospho- and total ERK1/2.

[15] = molecular target: T1, β-Gal; details: for binding to β-Gal on blot: 250 nM biotinylated peptide, 1 h, complete BL21 cell lysate
Description: A 0.4 ml suspension of BL21 cells (OD600 nm ^˜1.2) expressing β-Gal (grown under induced conditions) was centrifuged at 5000 g for 10 min at room temperature. The supernatant was discarded and 0.8 ml of bacterial protein extraction reagent (B-PER, Thermo scientific) containing protease inhibitor was added to the bacterial pellet and vortex mixed for 30 s in order to lyse the cells. To 21 μl of the complete BL21 cell lysate 5 μl of 5× SDS sample loading buffer (Fermentas) was added and heated at 99° C. for 3 min. This mixture (26 μl per well) was loaded in a 10-well NuPage 4-12% Bis-Tris gel and the proteins were separated under denaturing conditions. The separated proteins were then transferred to a nitrocellulose membrane and blocked overnight with 1% BSA in phosphate buffer saline, 0.05% Tween 20, pH 7.4 (PBS-T) at 4° C. Each lane of the membrane was cut out and separately incubated with either rabbit anti-β-Gal antibody either biotinylated Tango 1, either biotinylated Tango 2, or the biotinylated off-target peptide or either a biotinylated Tango 2 mutant peptide.
This was followed by 3×10 min wash with PBS-T and finally rinsed in deionised water for 10 min. The membrane strip was exposed to chemiluminescence HRP substrate reagent (SuperSignal West Femto Maximum Sensitivity Substrate, Thermo Fisher Scientific) and target protein visualized using Bio-Rad ChemiDoc XRS imaging system.
A stock solution (10 μM) of each of the biotinylated peptides was prepared in 100% DMSO. The peptide stock was diluted (1/400) in 10 mM MES buffer, 100 mM Trehalose, 0.05% Tween 20, pH 5.5 to obtain a final concentration of the peptide of 25 nM. The freshly prepared peptide solution was immediately added to the membrane strip and gently agitated at room temperature. After 15 min the peptide solution was decanted and the membrane strip was washed 3×10 min with 10 mM MES buffer, 0.05% Tween 20, pH 5.5 and further processed as described herein before.

[16] = molecular target: T3, PSA (Homo sapiens, UniProt P07288); assay: PepBlot detection of PSA in human seminal plasma; format: binding; details: 10% seminal plasma; for detection of PSA compared with monoclonal antibody: 250 nM peptide
T3 construct: A sample of 10% seminal plasma was fractionated under non-reducing condition using denaturing gel electrophoresis; from tissue; host or cells: human seminal plasma
Description: Semen from a volunteer was collected and allowed to liquefy at room temperature. After 2 h the seminal fluid was centrifuged at 10,000×g for 15 min to separate the plasma from sperm cells. A sample of 10% seminal plasma was fractionated under non-reducing condition using denaturing gel electrophoresis then transferred to PVDF membrane and blocked using protocol described for serum electrophoresis. Lanes of membrane were agitated separately with 250 nM of peptide b^˜[…] (SEQ ID NO: 88) or peptide b^˜[…] (SEQ ID NO: 85) or 250 pM tandem repeat peptide b^˜[…] (SEQ ID NO: 89) formulated in 10 mM MES buffer pH 5.1, 100 mM trehalose, 0.05% Tween 20 and 2.5% DMSO at 25° C. for 1 h. The membranes were rinsed in 10 mM MES buffer pH 5.1, 0.05% tween 20 and stained with HRP-conjugated SRP and visualized with ECL system. In parallel WB detection of PSA in seminal plasma was carried out by incubating the membrane with (1:5000) rabbit monoclonal anti-PSA antibody (EP1588Yi Abcam) specific to the c-terminal peptide of PSA. This was followed by staining with goat polyclonal anti-rabbit antibody conjugated to HRP and visualised using ECL system.

T3 sequence (P07288 25-261): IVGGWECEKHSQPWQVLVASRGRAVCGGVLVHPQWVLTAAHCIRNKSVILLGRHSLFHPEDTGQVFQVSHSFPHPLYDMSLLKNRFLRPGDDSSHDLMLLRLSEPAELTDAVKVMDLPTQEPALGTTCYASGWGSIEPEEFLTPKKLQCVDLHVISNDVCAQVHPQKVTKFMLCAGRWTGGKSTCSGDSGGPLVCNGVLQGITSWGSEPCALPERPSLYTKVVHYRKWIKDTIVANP
T1 sequence (P00722 2-1024 with the stated changes limits assumed): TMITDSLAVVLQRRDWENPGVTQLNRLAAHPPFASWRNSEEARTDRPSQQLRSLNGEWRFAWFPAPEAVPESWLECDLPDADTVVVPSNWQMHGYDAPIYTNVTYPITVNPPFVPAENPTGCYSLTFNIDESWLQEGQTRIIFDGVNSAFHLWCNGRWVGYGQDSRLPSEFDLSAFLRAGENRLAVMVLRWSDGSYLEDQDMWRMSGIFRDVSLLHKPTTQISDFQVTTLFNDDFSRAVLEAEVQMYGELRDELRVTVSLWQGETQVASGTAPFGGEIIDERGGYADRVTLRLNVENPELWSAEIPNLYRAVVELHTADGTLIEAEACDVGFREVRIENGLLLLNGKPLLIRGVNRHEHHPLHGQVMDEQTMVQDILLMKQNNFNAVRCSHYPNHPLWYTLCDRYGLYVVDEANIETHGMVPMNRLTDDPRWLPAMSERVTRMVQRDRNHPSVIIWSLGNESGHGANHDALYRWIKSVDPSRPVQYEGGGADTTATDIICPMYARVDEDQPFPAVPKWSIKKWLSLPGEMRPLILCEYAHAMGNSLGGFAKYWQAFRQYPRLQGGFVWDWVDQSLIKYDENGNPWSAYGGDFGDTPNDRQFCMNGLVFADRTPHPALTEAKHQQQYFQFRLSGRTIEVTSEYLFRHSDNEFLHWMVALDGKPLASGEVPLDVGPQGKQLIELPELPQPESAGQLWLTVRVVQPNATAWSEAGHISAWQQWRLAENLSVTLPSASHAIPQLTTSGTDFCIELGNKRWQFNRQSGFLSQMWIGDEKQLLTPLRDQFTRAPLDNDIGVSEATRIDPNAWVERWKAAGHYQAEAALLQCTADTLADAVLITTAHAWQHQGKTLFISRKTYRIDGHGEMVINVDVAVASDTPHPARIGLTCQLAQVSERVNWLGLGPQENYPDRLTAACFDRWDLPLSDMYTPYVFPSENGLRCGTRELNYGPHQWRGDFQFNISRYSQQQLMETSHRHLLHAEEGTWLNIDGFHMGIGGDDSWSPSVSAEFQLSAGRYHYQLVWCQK

CC1(C)S[C@@H]2[C@H](NC(=O)[C@H](N)c3ccccc3)C(=O)N2[C@H]1C(=O)O [Ampicilin, reference compound]
maximal increase of the MIC ([1]; 31 days, concentration in medium adjusted to MIC of previous day): up to 7 fold | MIC on the last day of the experiment ([1]; day 31): 100 µg/mL

CCOC(=O)C1=C[C@@H](OC(CC)CC)[C@H](NC(C)=O)[C@@H](N)C1 [Tamiflu, reference compound]
virus replication ([2]; positive control, 1 μM or 10 nM): did not completely inhibit viral replication in one setup

CO[C@H]1/C=C/O[C@@]2(C)Oc3c(C)c(O)c4c(O)c(c(/C=N/N5CCN(C)CC5)c(O)c4c3C2=O)NC(=O)/C(C)=C\C=C\[C@H](C)[C@H](O)[C@@H](C)[C@@H](O)[C@@H](C)[C@H](OC(C)=O)[C@@H]1C [rifampin, reference compound]
fold elevation of the MIC [3]: ≤ 512 fold

CN[C@H](CC(C)C)C(=O)N[C@H]1C(=O)N[C@@H](CC(N)=O)C(=O)N[C@H]2C(=O)N[C@H]3C(=O)N[C@H](C(=O)N[C@H](C(=O)O)c4cc(O)cc(O)c4-c4cc3ccc4O)[C@H](O)c3ccc(c(Cl)c3)Oc3cc2cc(c3O[C@@H]2O[C@H](CO)[C@@H](O)[C@H](O)[C@H]2O[C@H]2C[C@](C)(N)[C@H](O)[C@H](C)O2)Oc2ccc(cc2Cl)[C@H]1O [vancomycin, reference compound]
fold elevation of the MIC [3]: increased two-fold | reduction of expansion of initial inoculum [4]: 8.7 Log10 CFU/ml

(His)6~RLAVVLQR [Tango 1 peptide]
binding affinity with β-Gal observed in SPR [5]: weak binding affinity | co-aggregation kinetics with free β-Gal in solution [6]: faster co-aggregation kinetics

(His)6~RVIIWSLGNRGSGSAPAARVIIWSLGNR [Tandem of Tango 2]
co-aggregation kinetics with free β-Gal in solution [6]: fast co-aggregation kinetics

DMISYAGMDPPDMISYAGMD [B12, VEGFR2 peptide B12]
ERK1/2 phosphorylation after EGF stimulation [7]: do not inhibit ERK1/2 phosphorylation

O Z RGVSILNLRGSRGVSILNLR [interferor 4]
virus replication [2]: still reproducibly inhibit virus replication

O Z RLIQLIVSRGSRLIQLIVSR [interferor 1]
virus replication [2]: still reproducibly inhibit virus replication

O Z RTMAWTVVRGSRTMAWIVVR (RTMAWTVVRGSRTMAWTVVR) [interferor 3]
virus replication [2]: less strong

O Z RTTIMAAFRGSRTTIMAAFR [interferor 2]
virus replication [2]: less strong

RFFIALSRRGSRVQAYLYRR [Hit50]
recovery of HEK cells [8]: 90% | MIC values against B.cereus ATCC [9]: >100 µg/mL | hemolytic activity [10]: no significant hemolytic activity at clinically relevant concentrations | MIC [11]: 25 µg/mL | MIC in presence of 50% FBS [11]: 100 µg/mL | MIC values against MRSA 326 [11]: 50 µg/mL | LDH release [12]: 5% | MIC values against Corynebacterium [13]: 12.5 µg/mL

RIISAVVGRPPRIISAVVGR [A12]
EGF signaling (phospho-ERK1/2) [14]: significantly and repeatedly reduced EGF signaling

RTGYLYISRPPRTGYLYISR [A11]
EGF signaling (phospho-ERK1/2) [14]: significantly and repeatedly reduced EGF signaling

RWGLLLALRPPRWGLLLALR [A5]
EGF signaling (phospho-ERK1/2) [14]: significantly and repeatedly reduced EGF signaling

RWVSMLLRRGSRWVSMLLRR [Hit1]
MIC values against B.cereus ATCC [9]: 6 µg/mL | HD50 (concentration at which 50% of red blood cells are lysed) [10]: 25 to 50 µg/mL | MIC [11]: 3 µg/mL | MIC in presence of 50% FBS [11]: 25 µg/mL | MIC values against MRSA 326 [11]: 6 µg/mL | MIC values against Corynebacterium [13]: 3 µg/mL

b~DVIIWSLGNR~b [Complimentary charge]
specificity of binding to β-gal versus serum proteins ([15]; competitive PepBlot, 7% clinical serum in adjacent lane, 25 nM, 15 min): does not cross react with proteins in the serum

b~RLAVVLQR [Tango 1]
binding to β-Gal on blot [15]: weaker binding

b~RPITVNPPFR [Off-Target]
binding to β-Gal on blot [15]: no interaction

b~RQWVLTAAR [PSA interferor peptide]
detection of PSA compared with monoclonal antibody [16]: can detect PSA to comparable levels as the antibody

b~RQWVLTAARGSGSAPAARQWVLTAAR ({Biotin-Ttds}-APAARQWVLTAARGSGSAPAARQWVLTAAR) [tandem repeat PSA peptide]
detection of PSA (band signal) ([16]; 250 pM tandem repeat peptide): strong band signal

b~RVIIWSLGNR [Tango 2]
binding to β-Gal on blot [15]: strong affinity to the β-Gal

b~RVIPWSLGNR [Tango 2 Mut_2]
binding to β-Gal on blot [15]: still bind efficiently to β-Gal

b~RVPIWSLGNR [Tango 2 Mut_1]
binding to β-Gal on blot [15]: still bind efficiently to β-Gal

b~RWQVLVASD
detection of PSA compared with monoclonal antibody [16]: can detect PSA to comparable levels as the antibody
